In US10633419B2, “Immunomodulators” (BRISTOL-MYERS SQUIBB COMPANY, priority 2014, dated 2020):
Positions of bridges follow the written chain, without caps; N, C: chain ends. Non-standard residues stand in square brackets, D forms with d. Residues, ends and D or L forms follow the SMILES beside them. Groups on a side chain read outwards from the residue. ξ: configuration not given here. *: point of attachment. X6 = O=C(O)CCCCCCCCCCCCCCCCC(=O)N[C@@H](CCC(=O)NCCCOCCOCCOCCCN*)C(=O)O; X13 = O=C(O)CCCCCCCCCCCCCCC(=O)N[C@@H](CCC(=O)NCCCOCCOCCOCCCN*)C(=O)O; Ala(1-CH2COOH-inden-3-yl) = N[C@@H](CC1=CC(CC(=O)O)c2ccccc21)C(=O)O; Trp(1-CH2COOH) = N[C@@H](Cc1cn(CC(=O)O)c2ccccc12)C(=O)O; Phe(3,4,5-F3) = N[C@@H](Cc1cc(F)c(F)c(F)c1)C(=O)O; Phe(4-F) = N[C@@H](Cc1ccc(F)cc1)C(=O)O; d(cisHyp) = O=C(O)[C@H]1C[C@@H](O)CN1; PEG6 = NCCOCCOCCOCCOCCOCCOCCC(=O)O; Palmitoyl = CCCCCCCCCCCCCCCC(=O)*; Hyp = O=C(O)[C@@H]1C[C@@H](O)CN1; NMeF = CN[C@@H](Cc1ccccc1)C(=O)O; X30 = O=C1NC2CSC(CCCCC(=O)*)C2N1; NMeNle = CCCC[C@H](NC)C(=O)O; PEG4 = NCCOCCOCCOCCOCCC(=O)O; Pip = O=C(O)[C@@H]1CCCCN1; dPip = O=C(O)[C@H]1CCCCN1; NMeA = CN[C@@H](C)C(=O)O; Aun = NCCCCCCCCCCC(=O)O; Dab = NCC[C@H](N)C(=O)O; Dap = NC[C@H](N)C(=O)O; ξC = NC(CS)C(=O)O; Sar = CNCC(=O)O

The molecules below were run against T1, PD-L1 (Homo sapiens, UniProt Q9NZQ7) (assay: PD-1/PD-L1 Homogenous Time-Resolved Fluorescence (HTRF) binding assay (PD-1-Ig/PD-L1-His)). Conditions: inhibition of PD-1-Ig binding to PD-L1-TVMV-His; value given as range class; read-out: HTRF IC50.
T1 construct: hPDL1(19-239)-TVMV-His; made in house; host or cells: HEK293T
T1 sequence (Q9NZQ7 with tags, fused parts or gaps): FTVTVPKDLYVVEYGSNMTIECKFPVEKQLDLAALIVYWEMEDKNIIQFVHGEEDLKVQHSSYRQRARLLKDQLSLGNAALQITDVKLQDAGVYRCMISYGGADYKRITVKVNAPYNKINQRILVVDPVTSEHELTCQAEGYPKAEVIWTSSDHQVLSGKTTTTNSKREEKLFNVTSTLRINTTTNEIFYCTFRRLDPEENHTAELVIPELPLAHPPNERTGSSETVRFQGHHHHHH
In short: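 HTRF competition in dPBS with 0.1% BSA and 0.05% Tween-20: 20 nM PD-1-Ig added after 15 min compound pre-incubation with 10 nM PD-L1-His, then another 15 min. Signal (665/620 nm) after 30 min with APC anti-His (20 nM) and Eu anti-Ig (1 nM).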

Row | Compound | IC50
1 | CCCCCCCCCCCCCCCC(=O)NCCCC[C@H](NC(=O)CCOCCOCCOCCOCCOCCOCCNC(=O)CNC(=O)C1CSCC(=O)N[C@@H](Cc2ccc(O)cc2)C(=O)N(C)[C@@H](C)C(=O)N[C@@H](CC(=O)O)C(=O)N2CCC[C@H]2C(=O)N[C@@H](Cc2cnc[nH]2)C(=O)N[C@@H](CC(C)C)C(=O)N2C[C@H](O)C[C@H]2C(=O)N[C@@H](Cc2c[nH]c3ccccc23)C(=O)N[C@@H](CO)C(=O)N[C@@H](Cc2c[nH]c3ccccc23)C(=O)N(C)[C@@H](CCCC)C(=O)N(C)[C@@H](CCCC)C(=O)N[C@@H](CCCNC(=N)N)C(=O)N1)C(N)=O (stereo partly shown) [Example 11029] ({CH2CO}-Y[NMeA]DPHL[Hyp]WSW[NMeNle][NMeNle]R[ξC]G[PEG6]K(Palmitoyl)-NH2; thioether N-14) | 100 to 1600 nM
2 | CCCC[C@H]1C(=O)N(C)[C@@H](CCCC)C(=O)N[C@@H](CC(C)C)C(=O)C[C@H](C(=O)NCC(=O)N[C@@H](CCC(=O)O)C(=O)NCCCOCCOCCOCCCNC(=O)CC[C@H](NC(=O)CCCCCCCCCCCCCCC(=O)O)C(=O)O)CSCC(=O)N[C@@H](Cc2ccc(O)cc2)C(=O)N(C)[C@@H](C)C(=O)N[C@@H](CC(N)=O)C(=O)N2CCC[C@H]2C(=O)N[C@@H](CN)C(=O)N[C@@H](CC(C)C)C(=O)N2C[C@H](O)C[C@H]2C(=O)N[C@@H](Cc2c[nH]c3ccccc23)C(=O)N[C@@H](CCN)C(=O)N[C@@H](Cc2cn(CC(=O)O)c3ccccc23)C(=O)N1C [Example 11184] | 10 to 99 nM
3 | CCCC[C@H]1C(=O)N(C)[C@@H](CCCC)C(=O)N[C@@H](CC(C)C)C(=O)N[C@H](C(=O)NCC(=O)N[C@@H](CC(=O)NCCCOCCOCCOCCCNC(=O)CC[C@H](NC(=O)CCCCCCCCCCCCCCCCC(=O)O)C(=O)O)C(=O)O)CSCC(=O)N[C@@H](Cc2ccc(F)cc2)C(=O)N2CCCC[C@H]2C(=O)N[C@@H](CC(=O)O)C(=O)N2CCC[C@H]2C(=O)N[C@@H](CN)C(=O)N[C@@H](CCC(=O)O)C(=O)N2C[C@H](O)C[C@H]2C(=O)N[C@@H](Cc2c[nH]c3ccccc23)C(=O)N[C@@H](CCN)C(=O)N[C@@H](Cc2cn(CC(=O)O)c3ccccc23)C(=O)N1C [Example 11266] ({CH2CO}-[Phe(4-F)][Pip]DP[Dap]E[Hyp]W[Dab][Trp(1-CH2COOH)][NMeNle][NMeNle]LCGD(X6)-OH; thioether N-14) | 0.3 to 9.9 nM
4 | CCCC[C@H]1C(=O)N2C[C@H](O)C[C@@H]2C(=O)N[C@@H](CC(=O)O)C(=O)N[C@@H](C(C)C)C(=O)N(C)[C@@H](Cc2ccccc2)C(=O)N[C@@H](Cc2ccc(O)cc2)C(=O)N2CCCC[C@@H]2C(=O)N[C@@H](Cc2c[nH]c3ccccc23)C(=O)N[C@@H](Cc2ccc(O)cc2)C(=O)N[C@@H](CC(C)C)C(=O)N[C@H](C(=O)NCC(=O)NCC(=O)NCC(=O)N[C@@H](CCCCNC(=O)CCOCCOCCOCCOCCNC(=O)CCCCC2SCC3NC(=O)NC32)C(N)=O)CSCC(=O)N[C@@H](Cc2cc(F)c(F)c(F)c2)C(=O)N(C)[C@@H](Cc2ccccc2)C(=O)N1C (stereo partly shown) [Example 3626] ({CH2CO}-[Phe(3,4,5-F3)][NMeF][NMeNle][d(cisHyp)]DV[NMeF]Y[dPip]WYLCGGGK([PEG4-X30])-NH2; thioether N-13) | 0.3 to 9.9 nM

Now from value to molecule:

Row | IC50 | Compound
5 | 0.3 to 9.9 nM | CCCC[C@H]1C(=O)N(C)[C@@H](CCCC)C(=O)N[C@@H](CC(C)C)C(=O)N[C@H](C(=O)NCC(=O)N[C@@H](CC(=O)O)C(=O)NCCCOCCOCCOCCCNC(=O)CC[C@H](NC(=O)CCCCCCCCCCCCCCCCC(=O)O)C(=O)O)CSCC(=O)N[C@@H](Cc2ccc(F)cc2)C(=O)N2CCCC[C@H]2C(=O)N[C@@H](CC(=O)O)C(=O)N2CCC[C@H]2C(=O)N[C@@H](CN)C(=O)N[C@@H](CCC(=O)O)C(=O)N2C[C@H](O)C[C@H]2C(=O)N[C@@H](Cc2c[nH]c3ccccc23)C(=O)N[C@@H](CCN)C(=O)N[C@@H](Cc2cn(CC(=O)O)c3ccccc23)C(=O)N1C [Example 11264] ({CH2CO}-[Phe(4-F)][Pip]DP[Dap]E[Hyp]W[Dab][Trp(1-CH2COOH)][NMeNle][NMeNle]LCGD-X6; thioether N-14)
6 | 0.3 to 9.9 nM | CCCC[C@H]1C(=O)N(C)[C@@H](CCCC)C(=O)N[C@@H](CC(C)C)C(=O)N[C@H](C(=O)NCC(=O)NCCCCCCCCCCC(=O)O)CSCC(=O)N[C@@H](Cc2ccc(O)cc2)C(=O)N(C)[C@@H](C)C(=O)N[C@@H](CC(N)=O)C(=O)N2CCC[C@H]2C(=O)N[C@@H](Cc2cnc[nH]2)C(=O)N[C@@H](CCC(=O)O)C(=O)N2C[C@H](O)C[C@H]2C(=O)N[C@@H](Cc2c[nH]c3ccccc23)C(=O)N[C@@H](CCN)C(=O)N[C@@H](CC2=CC(CC(=O)O)c3ccccc32)C(=O)N1C (stereo partly shown) [Example 11077] ({CH2CO}-Y[NMeA]NPHE[Hyp]W[Dab][Ala(1-CH2COOH-inden-3-yl)][NMeNle][NMeNle]LCG[Aun]-OH; thioether N-14)
7 | 0.3 to 9.9 nM | CCCC[C@H]1C(=O)N(C)[C@@H](CCCC)C(=O)N[C@@H](CC(C)C)C(=O)N[C@H](C(=O)N(C)CC(=O)NCCCOCCOCCOCCCNC(=O)CC[C@H](NC(=O)CCCCCCCCCCCCCCC(=O)O)C(=O)O)CSCC(=O)N[C@@H](Cc2ccc(O)cc2)C(=O)N(C)[C@@H](C)C(=O)N[C@@H](CC(N)=O)C(=O)N2CCC[C@H]2C(=O)N[C@@H](CN)C(=O)N[C@@H](CC(C)C)C(=O)N2C[C@H](O)C[C@H]2C(=O)N[C@@H](Cc2c[nH]c3ccccc23)C(=O)N[C@@H](CCN)C(=O)N[C@@H](Cc2cn(CC(=O)O)c3ccccc23)C(=O)N1C [Example 11171] ({CH2CO}-Y[NMeA]NP[Dap]L[Hyp]W[Dab][Trp(1-CH2COOH)][NMeNle][NMeNle]LC[Sar]-X13; thioether N-14)
